# Read-outs that look alike come from different tables or passages of the source. Positions of bridges follow the written chain, without caps; N, C: chain ends. Non-standard residues stand in square brackets, D forms with d. Residues, ends and D or L forms follow the SMILES beside them. *: point of attachment. Octatrienoyl(2E,4E,6E) = C/C=C/C=C/C=C/C(=O)*; Pro(4R-Me) = C[C@H]1CN[C@H](C(=O)O)C1; NMeA = CN[C@@H](C)C(=O)O; X1 = CCC/C=C/C(=O)*
# Tests used:
# [1] = test system: S. aureus ATCC 29213; experiment: microbe, parasite or virus in culture; type: cell-based, Staphylococcus aureus; conditions: broth microdilution, Mueller-Hinton broth (without cation adjustment), CLSI, inoculum 5×10^4 CFU mL^−1, wild type
# Protocol: (§1) Determination of antibacterial activity: ADEP1 was purified from the culture supernatant of S. hawaiiensis NRRL 15010 as described.4 ADEPs 2, 4, 7, 9 were custom synthesised by EMC Microcollections, Tübingen, or provided by AiCuris, Wuppertal, Germany. The minimal inhibitory concentration (MIC) was determined by broth microdilution in Mueller‐Hinton broth (without cation adjustment) according to the guidelines of the Clinical Laboratory Standards Institute (CLSI).69 The inoculum was set to 5×10^4 CFU mL^−1 to allow some distance to the determined spontaneous resistance frequencies. […] All other ADEPs were used from DMSO stock solutions kept at −20 °C.
# [2] = test system: S. aureus 133; experiment: microbe, parasite or virus in culture; type: cell-based, Staphylococcus aureus; conditions: broth microdilution, Mueller-Hinton broth (without cation adjustment), CLSI, inoculum 5×10^4 CFU mL^−1, wild type
# Protocol: as §1
# [3] = test system: E. faecalis 27159; type: cell-based, Enterococcus faecalis; conditions: broth microdilution, Mueller-Hinton broth; wildtype
# Protocol: as §1
# [4] = test system: S. pneumoniae G9A; type: cell-based, Streptococcus pneumoniae; conditions: broth microdilution, Mueller-Hinton broth; wildtype
# Protocol: as §1
# [5] = test system: S. pneumoniae RC1; type: cell-based, Streptococcus pneumoniae; conditions: resistant clone of S. pneumoniae G9A; ClpP A94→G (ClpP core; β4)
# Protocol: as §1
# (§2) Screening for ADEP‐resistant mutants and determination of resistance rates: Single colonies of wild‐type strains grown on Mueller‐Hinton agar plates overnight were suspended in sterile saline and a final inoculum of 5×10^6 cells was spread on plates supplemented with different ADEP congeners at 4× and 10× the MIC. For B. subtilis strain 3xclpP, ADEP7‐containing Mueller‐Hinton agar plates were additionally supplemented with 1 mM IPTG. Resistant colonies were counted after 24 h at 37 °C and colonies were randomly chosen for MIC determinations and sequencing. Mutations in the clpP gene of the respective isolated mutants were analysed by amplifying the clpP gene (and upstream promoter region) by PCR and sequencing of the resulting PCR amplicons (LGC genomics). Sequencing data were analysed by using SnapGene software (GSL Biotech).
# [6] = test system: S. pneumoniae RC3; type: cell-based, Streptococcus pneumoniae; conditions: resistant clone of S. pneumoniae G9A; ClpP R171→H, oligomerisation sensor
# Protocol: as §1, §2
# [7] = test system: S. pneumoniae RC2; type: cell-based, Streptococcus pneumoniae; conditions: resistant clone of S. pneumoniae G9A; ClpP START→I, no expression
# Protocol: as §1, §2
# [8] = test system: S. pyogenes RC1; type: cell-based, Streptococcus pyogenes; conditions: resistant clone of S. pyogenes Wacker; Y insertion after N40 (ClpP core; α2)
# Protocol: as §1
# as §2, with “Resistant colonies were counted after 24 h at 37 °C and colonies were randomly chosen for MIC determinations and sequencing.” left out
# [9] = test system: S. pyogenes RC2; type: cell-based, Streptococcus pyogenes; conditions: resistant clone of S. pyogenes Wacker; ClpP L46→P (ClpP core; α2)
# Protocol: as §1
# as §2, with “Resistant colonies were counted after 24 h at 37 °C and colonies were randomly chosen for MIC determinations and sequencing.” left out
# [10] = test system: S. pyogenes Wacker; type: cell-based, Streptococcus pyogenes; conditions: broth microdilution, Mueller-Hinton broth; wildtype
# Protocol: as §1
# [11] = test system: E. faecalis ATCC 29212; experiment: microbe, parasite or virus in culture; type: cell-based, Enterococcus faecalis; conditions: broth microdilution, Mueller-Hinton broth (without cation adjustment), CLSI, inoculum 5×10^4 CFU mL^−1, wild type
# Protocol: as §1
# [12] = test system: B. subtilis RC14; type: cell-based, Bacillus subtilis; conditions: resistant clone of B. subtilis 168; ClpP G107→S (ClpP core)
# Protocol: as §1, §2
# [13] = test system: B. subtilis RC19; type: cell-based, Bacillus subtilis; conditions: resistant clone of B. subtilis 168; ClpP Y183→C (C-terminus; α7)
# Protocol: as §1, §2
# [14] = test system: B. subtilis RC13; type: cell-based, Bacillus subtilis; conditions: resistant clone of B. subtilis 168; ClpP I93→STOP, premature stop
# Protocol: as §1, §2
# [15] = test system: B. subtilis RC16; type: cell-based, Bacillus subtilis; conditions: resistant clone of B. subtilis 168; ClpP I44→F (ClpP core; α2)
# Protocol: as §1, §2
# [16] = test system: B. subtilis RC17; type: cell-based, Bacillus subtilis; conditions: resistant clone of B. subtilis 168; ClpP D172→V, active site
# Protocol: as §1, §2
# [17] = test system: B. subtilis RC15; type: cell-based, Bacillus subtilis; conditions: resistant clone of B. subtilis 168; ClpP G69→S (ClpP core)
# Protocol: as §1, §2
# [18] = test system: B. subtilis RC18; type: cell-based, Bacillus subtilis; conditions: resistant clone of B. subtilis 168; ClpP L190→S, ADEP binding site
# Protocol: as §1, §2
# [19] = Stability of dissolved compound; type: physicochemical; conditions: dissolved in DMSO; reason for fresh dissolution before MIC determination
# Protocol: as §1
# [20] = test system: B. subtilis 168; experiment: microbe, parasite or virus in culture; type: cell-based, Bacillus subtilis; conditions: broth microdilution, Mueller-Hinton broth (without cation adjustment), CLSI, inoculum 5×10^4 CFU mL^−1, wild type
# Protocol: as §1
# [21] = test system: E. faecalis RC8; type: cell-based, Enterococcus faecalis; conditions: resistant clone of E. faecalis 27159; ClpP D170→Y, oligomerisation sensor
# Protocol: as §1, §2
# [22] = test system: E. faecalis RC5; type: cell-based, Enterococcus faecalis; conditions: resistant clone of E. faecalis 27159; ClpP A180→V (C-terminus; α7)
# Protocol: as §1, §2
# [23] = test system: E. faecalis RC1; type: cell-based, Enterococcus faecalis; conditions: resistant clone of E. faecalis 27159; ClpP G100→STOP (A96→V; M99→Y), premature stop
# Protocol: as §1, §2
# [24] = test system: E. faecalis RC4; type: cell-based, Enterococcus faecalis; conditions: resistant clone of E. faecalis 27159; ClpP S43→STOP, premature stop
# Protocol: as §1, §2
# [25] = test system: E. faecalis RC6; type: cell-based, Enterococcus faecalis; conditions: resistant clone of E. faecalis 27159; ClpP R147→H (equatorial interface; α5)
# Protocol: as §1, §2
# [26] = test system: E. faecalis RC3; type: cell-based, Enterococcus faecalis; conditions: resistant clone of E. faecalis 27159; ClpP G74→D (ClpP core; α3)
# Protocol: as §1, §2
# [27] = test system: E. faecalis RC7; type: cell-based, Enterococcus faecalis; conditions: resistant clone of E. faecalis 27159; ClpP G68→D (ClpP core)
# Protocol: as §1, §2
# [28] = test system: E. faecalis RC2; type: cell-based, Enterococcus faecalis; conditions: resistant clone of E. faecalis 27159; ClpP H123→Q, active site
# Protocol: as §1, §2
# [29] = test system: B. subtilis, Enterococcus faecium, E. faecalis, S. pneumoniae, and Streptococcus pyogenes; experiment: Spontaneous resistance frequency, further Firmicutes; type: cell-based; conditions: same range as the S. aureus resistance rates (10^−6)
# Protocol: as §2
# [30] = test system: S. aureus ATCC 29213; experiment: Spontaneous resistance rate on ADEP-containing agar; type: cell-based, Staphylococcus aureus; conditions: ADEP exposure 4× MIC in Mueller-Hinton agar; 5×10^6 cells plated, colonies counted after 24 h at 37 °C
# Protocol: as §2
# [31] = test system: S. aureus 133; experiment: as above; type: cell-based, Staphylococcus aureus; conditions: ADEP exposure 4× MIC in Mueller-Hinton agar; 5×10^6 cells plated, colonies counted after 24 h at 37 °C
# Protocol: as §2
# [32] = test system: S. aureus; experiment: MIC against S. aureus, summary of Table 1; type: cell-based, Staphylococcus aureus; conditions: text summary of Table 1, strain not named
# Protocol: as §1
smiles,measurement,setting,value
"C/C=C/C=C/C=C/C(=O)N[C@@H](Cc1ccccc1)C(=O)N[C@H]1COC(=O)[C@@H]2C[C@@H](C)CN2C(=O)[C@H](C)NC(=O)[C@H](C)N(C)C(=O)[C@@H]2CCCN2C1=O [ADEP1] ({Octatrienoyl(2E,4E,6E)}-FSP[NMeA]A[Pro(4R-Me)]; ester 2-C)",MIC,[1],1 µg/mL
same,MIC,[2],0.5 µg/mL
same,MIC,[3],0.12 µg/mL
same,MIC,[4],0.12 µg/mL
same,MIC,[5],>32 µg/mL
same,MIC,[6],>32 µg/mL
same,MIC,[7],>32 µg/mL
same,MIC,[8],>32 µg/mL
same,MIC,[9],>32 µg/mL
same,MIC,[10],0.12 µg/mL
same,MIC,[11],0.063 µg/mL
same,MIC,[12],0.5 µg/mL
same,MIC,[13],>64 µg/mL
same,MIC,[14],>64 µg/mL
same,MIC,[15],8 µg/mL
same,MIC,[16],>64 µg/mL
same,MIC,[17],>64 µg/mL
same,MIC,[18],16 µg/mL
same,stability,[19],rather unstable
same,MIC,[20],0.063 µg/mL
same,MIC,[21],>64 µg/mL
same,MIC,[22],>64 µg/mL
same,MIC,[23],>64 µg/mL
same,MIC,[24],>64 µg/mL
same,MIC,[25],>64 µg/mL
same,MIC,[26],>64 µg/mL
same,MIC,[27],>64 µg/mL
same,MIC,[28],>64 µg/mL
same,spontaneous resistance frequencies,[29],in the same range
"C[C@H]1c2cccc(O)c2C(=O)C2=C(O)[C@]3(O)C(=O)C(C(N)=O)=C(O)[C@@H](N(C)C)[C@@H]3[C@@H](O)[C@@H]21 [Doxycycline, reference compound]",MIC,"[1]; Staphylococcus aureus, ATCC29213, read-out: MIC",0.06 µg/mL
same,MIC,"[2]; Staphylococcus aureus, 133, read-out: MIC",0.06 µg/mL
same,MIC,"[11]; Enterococcus faecalis, ATCC29212, read-out: MIC",4 to 8 µg/mL
same,MIC,"[20]; Bacillus subtilis, 168, read-out: MIC",0.125 µg/mL
CCC/C=C/C(=O)N[C@@H](Cc1ccccc1)C(=O)N[C@H]1COC(=O)[C@@H]2CCCN2C(=O)[C@H](C)NC(=O)[C@H](C)N(C)C(=O)[C@@H]2CCCN2C1=O [ADEP7] (X1-FSP[NMeA]AP; ester 2-C),MIC,[2],4 µg/mL
same,Resistance rate,[30],6×10^−7
same,Resistance rate,[31],4×10^−6
same,MIC,[11],2 µg/mL
same,minimal inhibitory concentration (MIC) against S. aureus,[32],8 µg/mL
same,MIC,[20],0.5 µg/mL

# Source: article PMC7496096, “Functional Characterisation of ClpP Mutations Conferring Resistance to Acyldepsipeptide Antibiotics in Firmicutes” (Chembiochem, 2020)
